Measurements: publication PMC12162873, “Modulating phosphatase DUSP22 with BML-260 ameliorates skeletal muscle wasting via Akt independent JNK-FOXO3a repression” (EMBO Molecular Medicine, 2025)

Columns and labels:
[1] = tested on: VH1-related (VHR) phosphatase; design: method as in Cutshall et al, 2005; settings: ref Cutshall et al, 2005; cited from earlier work
GST-tagged-DUSP22 = target: T1, GST-tagged-DUSP22 (Homo sapiens, UniProt Q9NRW4); test: DUSP22 phosphatase activity assay (EnzChek kit, DiFMUP substrate); format: biochemical; settings: 45 min at room temperature, read-out: IC50, inhibition of DUSP22 activity
T1 construct: purchased Sigma-Aldrich SRP5021
T1 sequence (Q9NRW4 1-184): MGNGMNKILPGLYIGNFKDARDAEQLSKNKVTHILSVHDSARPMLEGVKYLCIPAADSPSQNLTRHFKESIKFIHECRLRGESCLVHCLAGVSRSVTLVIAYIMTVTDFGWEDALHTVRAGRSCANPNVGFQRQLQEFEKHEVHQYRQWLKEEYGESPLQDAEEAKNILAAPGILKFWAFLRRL
Protocol: The phosphatase activity of purified DUSP22 was measured using the EnzChek® Phosphatase Assay Kit (E12020, ThermoFisher, MA, USA) following the manufacturer’s instructions. In brief, for the assay a 200 µM 6,8-difluoro-4-methylumbelliferyl phosphate (DiFMUP) working solution was prepared. 50 µL DiFMUP solution was added to each well of a black-walled microplate, followed by a 50 µL sample containing GST-tagged-DUSP22 (SRP5021, Sigma-Aldrich, MO, USA) or 1X reaction buffer, to give a total reaction volume of 100 µL per well. BML-260 and 1X reaction buffer in a 50 µL volume were then added to each well. The microplate was incubated at room temperature for 45 min in the dark and fluorescence was measured at excitation 360 nm and emission 455 nm (SpectraMAX Gemini XS, Molecular Devices, CA, USA).
A) Phosphatase activity assay for DUSP22 and inhibition by BML-260. […] (n=4) B) CB-Dock2 molecular docking analysis of BML-260 binding to the active site of DUSP22, DUSP22 with an active site mutation (at C88S), and DUSP15, which is a DUSP member with the highest homology with DUSP22 (as assessed by sequence alignment).
BML-260 binding. BML-260 bound DUSP15 at the interface of the A and B chain, distinct from the predicted active site at position 85. n represents technical replicates analyzed by Stu-dent’s t test. […]

## O=C(O)c1ccc(N2C(=O)C(=Cc3ccccc3)SC2=S)cc1 (stereo in doubt) [BML-260]
[1]
  inhibitory effect against VHR phosphatase: no inhibitory effect
GST-tagged-DUSP22
  IC50: 54 µM
